{"source": "patent US10538742B2", "about": "“Methods and means related to cancer stem cells” (Cambridge Enterprise Limited, priority 2004, dated 2020)", "key": {"[1]": {"system": "MCF7 cells", "test": "MCF7 SP cell expansion in serum-free medium with growth factors", "format": "cell-based, human", "conditions": "growth factor 10 ng/ml, 7 days, in FCS less than 0.8%", "description": "The cells were cultured in FCS (A) or serum-free medium with bFGF (B), EGF (C), or both (D) for 7 days and were analyzed by flow cytometry. The SP is outlined and shown as a % of the total cell population.\n(§1) The cells were cultured in DMEM, supplemented with 10% FCS, 100 units/ml penicillin G, and 100 μg/ml streptomycin (GIBCO). In some experiments, C6 cells were cultured in serum-free DMEM containing 10 μg/ml bovine insulin, 100 μg/ml human transferrin, 100 μg/ml BSA, 60 ng/ml progesterone, 16 μg/ml putrescine, 40 ng/ml sodium selenite, 63 μg/ml N-acetylcysteine, 5 μM forskolin, 50 units/ml penicillin, and 50 μg/ml streptomycin (GIBCO), as well as one or both of 10 ng/ml bFGF and 10 ng/ml PDGF, or one or both of bFGF (10 ng/ml) and EGF (10 ng/ml).\nMCF7 Cell Expansion MCF7 cells were cultured in 10% FCS (FIG. 7A) or in serum-free culture medium with bFGF (FIG. 7B), EGF (FIG. 7C), or both (FIG. 7D) for 7 days. […] Cells were stained with Hoechst dye and analyzed by flow cytometry. When cultured in FCS, less than 0.8% of the cells are SP cells. By contrast, when cultured in serum-free medium with bFGF, EGF or both, 5.1%, 3.5%, or 6.2% of the cells, respectively, are SP cells."}, "[2]": {"system": "MCF-7 cells", "test": "Treatment of MCF-7 cells with gamma secretase inhibitor, SP quantitated", "format": "cell-based, human", "conditions": "10 uM reserpine during SP analysis", "description": "FIG. 10A-10D illustrates the results of a screen for anti-cancer stem cell activity using the MCF-7 cancer cell line. MCF-7 cells were incubated with 1 uM gamma secretase inhibitor (Calbiochem, San Diego, catalog number 565750) for 7 days (B, D). Control cells were cultured without a gamma secretase inhibitor (A, C). Following drug treatment, cells were washed, and then the SP was analyzed as described herein, in the presence (C, D) or absence (A, B) of 10 uM reserpine. The percentage of SP cells in the culture is given for each experimental condition.\nMCF-7 cells were cultured in serum-containing media, as described above. Cells were harvested from the cultures, washed, and resuspended in gamma secretase inhibitor I. Gamma secretase inhibitor I was purchased from Calbiochem™ (San Diego, Calif.; Catalog number 565750). The gamma secretase inhibitor was added to the cultures at a final concentration of 1 uM. Cells were treated for 7 days, and the SP was quantitated as described.\nThe invention includes methods for evaluating compounds for anti-cancer stem cell activity by monitoring the SP cell population of a cancer cell line. In this experiment, MCF-7 cells were treated with a gamma secretase inhibitor, as described above. […] Therefore, gamma secretase inhibitors could affect cancer stem cells expressing the Notch protein. […]"}, "[3]": {"system": "C6 cells", "test": "C6 SP cell expansion in serum-free medium with bFGF and PDGF", "format": "cell-based, rat", "conditions": "10 ng/ml growth factor, up to 3 weeks", "description": "as §1\nTo identify and isolate the SP cells in the cancer cell lines, the lines were cultured as described above, in either FCS or serum-free culture medium with bFGF, PDGF, or both. […] Then, 3-5×10^4 cells were analyzed in a FACSVantage fluorescence-activated cell sorter (Becton Dickinson) by using dual-wavelength analysis (blue, 424-444 nm; red, 675 nm) after excitation with 350-nm UV light. […]\nThe cells were stained with Hoechst 33342 and analyzed by flow cytometry. […]\nTo investigate the individual roles of PDGF and bFGF in expanding C6 SP cells, C6 cells were cultured in either bFGF or PDGF for 2 weeks and then in bFGF plus PDGF for an additional 2 weeks. The cells were then stained with Hoechst 33342 and analyzed by flow cytometry. […]"}, "[4]": {"system": "MCF7 breast cancer cells", "test": "SP analysis by Hoechst 33342 flow cytometry, MCF7 breast cancer cells", "format": "cell-based, human", "conditions": "50 μM verapamil during Hoechst 33342 labeling", "description": "(§2) To identify and isolate the SP cells in the cancer cell lines, the lines were cultured as described above, in either FCS or serum-free culture medium with bFGF, PDGF, or both. The cells were removed from the culture dish with trypsin and EDTA GIBCO BRL), washed, suspended at 10^6 cells per ml in DMEM containing 2% FCS (staining medium), and preincubated in 1.5-ml Eppendorf tube at 37° C. for 10 min. The cells were then labeled in the same medium at 37° C. for 90 min with 2.5 μg/ml Hoechst 33342 dye (Molecular Probes), either alone or in combination with 50 μM verapamil (Sigma), which is an inhibitor of some (verapamil-sensitive) ABC transporters (Goodell, M. A. (1996) J. Exp. Med. 183 1797-1806.). Finally, the cells were counterstained with 1 μg/ml propidium iodide to label dead cells. Then, 3-5×10^4 cells were analyzed in a FACSVantage fluorescence-activated cell sorter (Becton Dickinson) by using dual-wavelength analysis (blue, 424-444 nm; red, 675 nm) after excitation with 350-nm UV light. Propidium iodide-positive dead cells (15%) were excluded from the analysis. In the case of the C6 cell line, the SP cells or non-SP cells were sorted and cultured in serum-free culture medium with bFGF and PDGF.\n(§3) They were then analyzed by flow cytometry. […] No SP cells were detected in the two human osteosarcoma lines (U-20S and SaOS-2)."}, "[5]": {"system": "B104 neuroblastoma cells", "test": "SP analysis by Hoechst 33342 flow cytometry, B104 neuroblastoma cells", "format": "cell-based, rat", "conditions": "50 μM verapamil during Hoechst 33342 labeling", "description": "as §2, §3"}, "[6]": {"system": "HeLa carcinoma cells", "test": "SP analysis by Hoechst 33342 flow cytometry, HeLa carcinoma cells", "format": "cell-based, human", "conditions": "50 μM verapamil during Hoechst 33342 labeling", "description": "as §2, §3"}, "[7]": {"system": "C6 glioma cells", "test": "SP analysis by Hoechst 33342 flow cytometry, C6 glioma cells", "format": "cell-based, rat", "conditions": "50 μM verapamil during Hoechst 33342 labeling", "description": "as §2, §3"}}, "data": [{"compound": "EGF: recombinant cytokine added to serum-free medium at 10 ng/ml", "values": [{"measurement": "% of the cells that are SP cells", "setting": "[1]", "value": 3.5, "unit": "%"}]}, {"compound": "COC(=O)[C@H]1[C@H]2C[C@@H]3c4[nH]c5cc(OC)ccc5c4CCN3C[C@H]2C[C@@H](OC(=O)c2cc(OC)c(OC)c(OC)c2)[C@@H]1OC", "note": "[reserpine]", "values": [{"measurement": "SP in the presence of reserpine", "setting": "[2]", "value": "no SP is visible"}]}, {"compound": "bFGF: basic fibroblast growth factor, recombinant cytokine purchased from PeproTech", "values": [{"measurement": "SP cells maintained or detected in culture", "setting": "[3]", "value": "few SP cells could be detected"}, {"measurement": "% of the cells that are SP cells", "setting": "[1]", "value": 5.1, "unit": "%"}]}, {"compound": "COc1ccc(CCN(C)CCCC(C#N)(c2ccc(OC)c(OC)c2)C(C)C)cc1OC", "note": "(stereo not drawn) [verapamil]", "values": [{"measurement": "SP (side population) on treatment with verapamil", "setting": "[4]", "value": "decreased greatly"}, {"measurement": "SP (side population) on treatment with verapamil", "setting": "[5]", "value": "decreased greatly"}, {"measurement": "SP (side population) on treatment with verapamil", "setting": "[6]", "value": "decreased greatly"}, {"measurement": "SP (side population) on treatment with verapamil", "setting": "[7]", "value": "decreased greatly"}]}, {"compound": "PDGF", "values": [{"measurement": "SP cells maintained or detected in culture", "setting": "[3]", "value": "few SP cells could be detected"}]}]}
